Non-standard residues stand in square brackets, D forms with d. Residues, ends and D or L forms follow the SMILES beside them. pGlu = O=C1CC[C@@H](C(=O)O)N1
Tested on: collagenase
Test: Collagenase inhibition, acetyl 14C collagen hydrolysis (procedure of Sellers et al.)
Format: biochemical
Settings: 2 mM inhibitor, 35° C., 5 to 18 hours, Tris-CaCl2 pH 7.4, versus control devoid of inhibitor
Procedure: The collagen is acetyl ^14 C collagen. The samples are centrifuged and an aliquot removed for assay on a scintillation counter. Because native collagen forms insoluble fibrils under the test conditions, the supernatant liquid contains radioactivity as a measure of hydrolysis. The collagenase activity in the presence of 2 mM inhibitor is compared to activity in a control devoid of inhibitor and the results reported as percent inhibition of collagenase activity. Each of the compounds of this invention have been established as active collagenase inhibitors by the test procedure.
The following examples illustrate the preparation of typical representative compounds of the invention. After each preparative example, the percent inhibition of collagenase activity at the 2 mM level of inhibition in accordance with the previously described standart testing procedure is provided.

Compound	Percent inhibition collagenase [%]
Ac-PQGIAG-NH2 [Example 3, CH3 CO-Pro-Gln-Gly-Ile-Ala-Gly-NH2]	35
CC[C@H](C)[C@H](NC(=O)[C@@H](N)CS)C(N)=O [Example 1, H-L-Cys-L-Ile-NH2] (H-Cys-Ile-NH2)	35
CC[C@H](C)[C@H](NC(=O)[C@H](CS)NC(=O)[C@@H]1CCC(=O)N1)C(N)=O [Example 2, L-pGlu-L-Cys-L-Ile-NH2] ([pGlu]-Cys-Ile-NH2)	75
